In BigSolDB 2.1:

O=C(O)CCCc1c[nH]c2ccccc12
solubility (mole fraction)
Conditions	283.15 K	288.15 K	293.15 K	298.15 K	303.15 K	308.15 K	313.15 K	318.15 K	323.15 K
in 2-butanone	0.123	0.139	0.152	0.168	0.185	0.198	0.218	0.24	0.264
in acetone	0.22	0.24	0.257	0.274	0.291	0.315	0.339	0.365	0.399
in acetonitrile	0.0411	0.0531	0.0654	0.0814	0.104	0.123	0.155	0.192	0.256
in dimethyl carbonate	0.0194	0.022	0.0287	0.0354	0.0453	0.0535	0.0644	0.0827	0.101
in ethanol	0.048	0.0557	0.0642	0.0753	0.0886	0.1	0.116	0.141	0.171
in ethyl acetate	0.049	0.0582	0.0689	0.0808	0.0914	0.103	0.122	0.145	0.17
in ethyl lactate	0.101	0.106	0.117	0.128	0.14	0.151	0.165	0.19	0.22
in isobutanol	0.0213	0.0253	0.0315	0.0379	0.0477	0.0581	0.0697	0.0857	0.102
in isobutyl acetate	0.0355	0.0429	0.0498	0.0572	0.0649	0.0736	0.0848	0.0958	0.11
in isopentanol	0.0309	0.0348	0.0412	0.0505	0.0601	0.0725	0.0858	0.0985	0.116
in isopropanol	0.0406	0.0494	0.0599	0.0724	0.0859	0.0984	0.112	0.128	0.143
in isopropyl acetate	0.0492	0.0628	0.0711	0.0813	0.0905	0.101	0.11	0.124	0.149
in methanol	0.0481	0.0562	0.0656	0.0777	0.0922	0.104	0.123	0.153	0.181
in methyl acetate	0.0573	0.0623	0.0701	0.0812	0.0909	0.106	0.126	0.154	0.19
in n-butanol	0.0362	0.0422	0.0495	0.0582	0.0688	0.0786	0.0961	0.112	0.134
in n-butyl acetate	0.0582	0.0645	0.0726	0.0797	0.0885	0.0977	0.112	0.129	0.141
in n-pentanol	0.0362	0.0408	0.0486	0.058	0.0674	0.0764	0.0929	0.108	0.124
in n-propanol	0.0385	0.0446	0.0534	0.0605	0.0727	0.0863	0.0994	0.112	0.139
in sec-butanol	0.0417	0.0486	0.0582	0.0692	0.0829	0.0964	0.111	0.13	0.163
